# Assay results: US5773438A, “Synthetic matrix metalloprotease inhibitors and use thereof” (Glycomed Incorporated, priority 1994, dated 1998)
# Entries after “also recorded” stand apart in the source; their conditions may differ.
# How the values were obtained:
# Stromelysin = Stromelysin (Homo sapiens, UniProt P08254); assay: inhibition of stromelysin (Table 2); format: biochemical; conditions: read-out: Strom inhibitory activity
# Procedure: Specifically, assay of inhibition activity can be conducted as follows. […] Assays for inhibition of human stromelysin are conducted as described by Teahan, J., et al., Biochemistry (1989) 20:8497-8501.
# Assay of inhibition activity can be conducted using a fluorogenic substrate developed by Knight et al., FEBS Letters (1992) 296:263. This method uses a fluorometer to determine the rate of substrate hydrolysis in a 96 well plate format. Reaction rates are determined at several substrate concentrations, and multiple inhibitor levels. The data are analyzed by Lineweaver-Burk, Dixon and Henderson plot analyses (Enzyme Kinetics (1975) Irwin Segal (John Wiley & Sons, Inc., publishers), and as described by Henderson, Biochem J. (1972) 127:321). The substrate levels range from 10-30μM. […] Inhibitors may be assayed against purified 72 kD gelatinase, 92 kD gelatinase, neutrophil collagenase, stromelysin or other proteases as appropriate. The enzymes are activated at 37° C. with APMA (4-aminophenylmercuric acetate), and the assays are carried out at room temperature.
# [1] = system: PdiBu-Induced Epidermal Hyperplasia; assay: PdiBu-induced epidermal hyperplasia mouse model (psoriasis); format: in vivo, hairless mice
# Procedure: The phorbol ester, PdiBu (20 nmol in 20 μl if acetone) was applied to both ears of hairless mice (h/h) (approximately 1 cm^2 each). The test compounds (in total volume of 20 μl) were then applied to the right ear immediately (15 to 30 min) following PdiBu. The left ear of each animal received an equivalent amount (20 μl) of vehicle. Test compounds (and vehicle) were reapplied at 6 and 18 hours following PdiBu. Treatment times were staggered to allow exact time intervals to be obtained. At 30 hours after PdiBu, animals were anesthetized, and ear thickness values were obtained using a microcaliper. The weights of punch biopsies (6mm) were then obtained. Histology was performed on selected samples taken at 30 hours.
# Left ear in each animal served as vehicle-treated controls (PdiBu+ETOH). Thus, the controls for this series include: 1) Untreated controls; 2) PdiBu plus vehicle alone (included for each mouse tested); 3) PdiBu plus AHA; 4) PdiBu plus Lidex® as a positive control.
# [2] = system: infiltration of neutrophils in the peritoneal cavity; assay: thioglycollate induced peritonitis assay; format: in vivo, Balb/c male mice; conditions: 800 μg/ml, 1 ml/animal i.p. at 0.5, 1.0, 2.0 hr; p=0.0141
# Procedure: 6-8 week old Balb/c male mice were used (n=10 each for the treated and control groups). Thioglycollate suspension (5.9 g/l in deionized water) was boiled until the color was golden, then cooled yielding a pink color. The lavage solution consisted of saline supplemented with 0.1% bovine serum albumin (100 mg/100 ml) and 5U heparin/ml.
# Cells were collected by lavage at T=3.0 hr. post thioglycollate administration. The animals were euthanized by CO2 asphyxiation, and the abdominal skin was cut with surgical scissors to reveal the peritoneal cavity. Five ml of lavage fluid was injected into the peritoneum, and a suspension was made by gentle massage. The fluid was removed by syringe, recovering about 80% of the injected fluid. Total cell counts in the lavage fluid were determined by Coulter Counter.
# B16-F10 murine melanoma = assay: experimental metastasis assay in C57 mice; format: in vivo, Female C57 BL/6 mice; conditions: days 35-37; 150 mg/kg/d ip; p<0.05
# Procedure: Female C57 BL/6 mice, 4-6 weeks old (15-20 grams), from Simonsen Laboratories (Gilroy, Calif.) were used for this assay.
# The B16-F10 murine melanoma was obtained from the American Type Tissue Culture Collection, and routinely propagated in DMEM (Dulbecco's modified eagles medium)+10% fetal calf serum in plastic tissue culture flasks in a humidified 5% CO2 incubator at 37° C. B16-F10 tumor cells were harvested with trypsin-EDTA (ethylenediamine-tetraacetic acid), washed with PBS (phosphate buffered saline, 2x), resuspended at a concentration of 5×10^5 cells/ml, and held on ice prior to injection. Animals were challenged with 5×10^4 cells in a volume of 0.1 ml intravenously (10 animals/treatment group). Animals were randomly distributed prior to assignment to treatment groups.
# Survival times were recorded for animals in the various treatment groups, and results were evaluated using Chi-Squared statistical analysis.
# hypovolemic shock = assay: hypovolemic shock, trauma-hemorrhage and resuscitation, non-heparinized rat; format: in vivo, Sprague-Dawley rats
# Procedure: This experiment relates to metalloprotease inhibitors in treating hypovolemic shock when administered systemically (via i.v. injection, infusion or other appropriate route) during resuscitation following hemorrhage-induced shock in a non-heparinized animal.
# Following hemorrhage, Ringer's lactate (3X maximum bleedout volume) was given over 45 minutes followed by Ringer's lactate (2X maximum bleedout volume) over 60 minutes. […] Sham-operated animals underwent blood vessel cannulation and midline incision, but hemorrhage and resuscitation was not induced. […] Saline-treated underwent trauma-hemorrhage and fluid resuscitation plus vehicle (an equal volume of normal saline) treatment.
# common carotid artery = assay: anti-restenotic assay, balloon catheter injury of common carotid artery; format: in vivo, Male Sprague-Dawley rats
# Procedure: Male Sprague-Dawley rats (3-3.5 months old) were subject to balloon catheter injury of the common carotid artery (Clowes et al. Lab. Invest. (1983) 49:208-215). […] Rats were sacrificed at 4 days after injury. They were injected with 25 mg/kg BrdU subcutaneously at 17, 9 and 1 hours before sacrifice to label replicating vascular smooth muscle cells. A catheter was inserted into the aorta, and the carotids were fixed by perfusion with 4% paraformaldehyde at physiologic pressure. After carefully dissecting out the common carotid, the vessels were embedded in paraffin, cross-sectioned and stained with anti-BrdU antibody and hematoxylin, and an index of medical smooth muscle cell replication was obtained by expressing the % labelled SMCs ([…] et al., J. Clin. Invest. (1992) 90:2044-2049). After fixation, the common carotids were pinned out with the intimal surface facing upwards, and cells present on the intimal surface were stained with an antibody to histone proteins. […] The surface cells were counted and the number of cells per unit area was determined. […] The animals were injected with BrdU before sacrifice to label replicating cells in the media and intima. By 10 days after injury, the normal vessel forms a thickened neointima; smooth muscle migration in to the intima and subsequent proliferation contribute to this thickening. Cross-sections of the vessel were cut and stained with anti-BrdU and hematoxylin. Intimal cross-sectional areas were measured using a computer digitizing system. […] All data are presented as mean+SEM, and the data were analyzed by student's test.
# Stromelysin, sequence (P08254 100-477): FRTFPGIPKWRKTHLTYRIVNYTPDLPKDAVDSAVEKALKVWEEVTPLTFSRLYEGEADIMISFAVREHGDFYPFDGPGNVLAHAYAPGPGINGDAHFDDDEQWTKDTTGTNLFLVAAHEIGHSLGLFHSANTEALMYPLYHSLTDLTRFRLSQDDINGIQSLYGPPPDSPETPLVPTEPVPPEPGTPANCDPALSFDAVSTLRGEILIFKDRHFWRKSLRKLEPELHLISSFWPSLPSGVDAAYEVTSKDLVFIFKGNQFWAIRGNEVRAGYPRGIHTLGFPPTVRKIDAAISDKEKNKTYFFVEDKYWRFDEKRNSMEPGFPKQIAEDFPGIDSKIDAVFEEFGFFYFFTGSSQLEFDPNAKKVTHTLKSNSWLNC
structure (smiles),measurement,setting,value
"CNC(=O)[C@H](Cc1c[nH]c2ccccc12)NC(=O)[C@@H](CC(=O)NO)CC(C)C [Compound 5A, N-[D,L-2-isobutyl-3-(N'-hydroxycarbonylamido)-propanoyl]-tryptophan methylamide]",Ki,Stromelysin,27 nM
same,skin biopsy weight,"[1]; PdiBu + 5A, 0.51 μmol/ear at 0.25 and 24 hours, 6 mm punch",13.4 ± 1.5 mg
same,"skin biopsy weight, % of Control","[1]; PdiBu + 5A, 0.51 μmol/ear at 0.25 and 24 hours, of untreated control",146%
same,ear thickness,"[1]; PdiBu + 5A, topical 0.51 μmol/ear",18.6 ± 1.6 inch × 10^-3
same,"ear thickness, % of Control","[1]; PdiBu + 5A, topical 0.51 μmol/ear, of untreated control",140%
same,PdiBu-induced epidermal hyperplasia,[1]; histology,inhibited; also recorded: completely prevents; also recorded: decreased inflammation and epidermal hyperplasia
same,PdiBu-induced extravasation of RBC's,[1]; histology,inhibited
same,PdiBu-induced migration of inflammatory cells into dermis and epidermis,[1]; histology,inhibited
same,epidermal morphology,[1]; histology,more normal appearing epidermal morphology
same,anti-inflammatory activity,[1]; in vivo model for psoriasis,potent anti-inflammatory activity; also recorded: nearly comparable to that observed with Lidex®
same,effect on PdiBu-induced ear thickness,[1]; topical,significantly inhibited
same,effect on PdiBu-induced increase in punch biopsy weight,[1]; topical,significantly inhibited
same,average number of cells in the peritoneum versus vehicle,[2],significantly reduced
same,survival of mice versus vehicle control,B16-F10 murine melanoma,significant increase in the survival
same,hepatocellular function (Vmax and Km),hypovolemic shock; 2 and 4 hours,improved hepatic function relative to saline group; also recorded: restores or significantly improves
same,Vmax of indocyanine green clearance versus saline group,hypovolemic shock; 2 h,significantly higher
same,maximal clearance rate (Vmax) of indocyanine green,"hypovolemic shock; 2 h after resuscitation, of sham level",about 85%
same,microvascular blood flow versus saline group,"hypovolemic shock; 2 h and 4 h, liver, kidney, spleen, small intestine",elevated relative to the saline group; also recorded: restores or significantly improves
same,microvascular blood flow,"hypovolemic shock; 2 h and 4 h, of sham, liver, kidney, spleen, small intestine",80-100%
same,Vmax of indocyanine green clearance versus saline treated animals,hypovolemic shock; 4 h,two-fold that of saline treated animals
same,total peripheral resistance,"hypovolemic shock; following resuscitation, versus saline or sham",lower following resuscitation in 5A group versus saline or sham treatment; also recorded: decreases total peripheral resistance
same,cardiac output,hypovolemic shock; of sham group,about 80%
same,stroke volume,hypovolemic shock; of sham group,about 85%
same,mean arterial pressure,hypovolemic shock; of the sham group,60-70%
same,cardiac output versus saline group,"hypovolemic shock; rat, in vivo",significantly elevated; also recorded: restores or significantly improves
same,mean arterial pressure versus saline,"hypovolemic shock; rat, in vivo",not significantly different; also recorded: no significant effects
same,stroke volume versus saline group,"hypovolemic shock; rat, in vivo",elevated relative to saline group
same,systemic hematocrit versus saline treated group,"hypovolemic shock; rat, in vivo",no significant effects
same,heart rate,hypovolemic shock; versus other groups,about the same; also recorded: no significant effects
same,number of cells per unit area (intimal surface) versus CMC controls,"common carotid artery; 4 day, 100 mg/kg i.p. daily",significant decrease
same,cell migration into the intima,common carotid artery; 4 days after balloon injury,very large decrease
same,intimal cell replication rate versus controls,common carotid artery; 10 day,significantly higher
same,lesion thickness,common carotid artery; 10 day,dramatically reduced
same,intimal cross-sectional area versus CMC controls,"common carotid artery; 10 day, daily administration",significant decrease
